These are literature values, as cited in patent US20100210653A1, “Novel Compounds, Their Preparations and Use” (HIGH POINT PHARMACEUTICALS, LLC, priority 2004, published 2010).

Molecules are shown by their SMILES.

Data set [1] concerns high fat diet induced insulin resistant mice and diabetic ob/ob. Particulars: PNAS 2003, 100, 15924-15929.
The next data set concerns C2C12 muscle cells. The note with it: in vitro treatment, two publications.

For the compound `Cc1cc(SCc2sc(-c3ccc(C(F)(F)F)cc3)nc2C)ccc1OCC(=O)O` [GW501516], in data set [1], the insulin sensitivity entry is “improved insulin sensitivity”; the “plasma glucose and insulin” value was “lowering of plasma glucose and insulin”. Moreover, the “regulation of genes (LPL, ACS4, CTP1, PDK4, UCP1, -2, -3, ABCA1/G1)” value with C2C12 muscle cells is “regulation of genes involved with TG hydrolysis and FFA oxidation”.
